# Paper PMC7864068, “α2-Macroglobulin-like protein 1 can conjugate and inhibit proteases through their hydroxyl groups, because of an enhanced reactivity of its thiol ester” (The Journal of Biological Chemistry, 2021)
# Assays:
# A2M (α2-macroglobulin) = molecular target: T1, A2M (α2-macroglobulin) (Homo sapiens, UniProt P01023, N1088H); assay: LC-MS/MS PRM of the pepsin-digested thiol ester peptide conjugate; assay type: biochemical; conditions: covalent ester at thiol ester Gln-975; recombinant A2M activated by chymotrypsin; 200 mM glycerol, HBS pH 7.4, 37 °C
# T1 construct: WT purified from plasma; N1088H recombinant from HEK293 cells (gene based on mRNA M11311), native form enriched by LRP1 depletion; tetramer; cleaved by chymotrypsin in the assay
# T1 sequence (P01023 24-1474 N1088H): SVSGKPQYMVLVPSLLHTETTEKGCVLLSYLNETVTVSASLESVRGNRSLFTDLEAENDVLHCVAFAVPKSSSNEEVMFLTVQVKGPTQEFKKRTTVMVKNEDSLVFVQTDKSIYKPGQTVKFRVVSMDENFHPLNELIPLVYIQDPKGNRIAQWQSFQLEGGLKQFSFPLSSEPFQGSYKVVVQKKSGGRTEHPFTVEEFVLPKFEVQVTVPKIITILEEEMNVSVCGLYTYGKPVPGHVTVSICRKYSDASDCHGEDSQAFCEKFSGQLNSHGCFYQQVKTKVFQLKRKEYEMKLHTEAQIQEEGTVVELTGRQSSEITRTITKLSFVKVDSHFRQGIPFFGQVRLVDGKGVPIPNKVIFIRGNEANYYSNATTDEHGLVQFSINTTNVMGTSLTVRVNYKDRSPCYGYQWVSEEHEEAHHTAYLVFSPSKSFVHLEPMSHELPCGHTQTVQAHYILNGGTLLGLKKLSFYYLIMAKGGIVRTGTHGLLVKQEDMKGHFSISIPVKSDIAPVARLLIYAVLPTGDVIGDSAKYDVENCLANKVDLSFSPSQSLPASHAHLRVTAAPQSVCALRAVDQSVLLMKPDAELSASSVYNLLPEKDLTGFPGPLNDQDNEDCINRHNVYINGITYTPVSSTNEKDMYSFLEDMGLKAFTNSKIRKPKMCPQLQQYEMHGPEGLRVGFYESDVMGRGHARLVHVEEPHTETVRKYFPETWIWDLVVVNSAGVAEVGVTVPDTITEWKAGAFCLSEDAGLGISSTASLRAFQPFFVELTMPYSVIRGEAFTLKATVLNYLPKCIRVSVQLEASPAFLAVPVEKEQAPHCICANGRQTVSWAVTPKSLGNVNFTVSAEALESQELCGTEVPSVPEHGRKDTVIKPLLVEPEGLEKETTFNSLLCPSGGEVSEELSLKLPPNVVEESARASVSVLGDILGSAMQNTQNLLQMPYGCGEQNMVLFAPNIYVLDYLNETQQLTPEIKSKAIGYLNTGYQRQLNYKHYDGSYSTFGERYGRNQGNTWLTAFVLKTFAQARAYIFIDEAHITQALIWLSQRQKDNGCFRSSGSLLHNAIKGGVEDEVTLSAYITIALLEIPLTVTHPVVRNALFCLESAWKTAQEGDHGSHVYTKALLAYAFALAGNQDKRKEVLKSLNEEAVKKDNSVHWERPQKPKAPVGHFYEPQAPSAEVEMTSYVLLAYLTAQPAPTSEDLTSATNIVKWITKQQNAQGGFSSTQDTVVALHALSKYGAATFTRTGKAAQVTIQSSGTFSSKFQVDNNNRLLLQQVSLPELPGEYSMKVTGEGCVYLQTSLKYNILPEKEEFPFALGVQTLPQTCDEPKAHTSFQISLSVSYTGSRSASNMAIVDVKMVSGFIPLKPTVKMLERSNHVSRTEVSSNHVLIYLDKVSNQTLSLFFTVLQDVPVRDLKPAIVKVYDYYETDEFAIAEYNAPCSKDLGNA
# [1] = molecular target: T2, A2ML1 (α2-macroglobulin-like protein 1) (Homo sapiens, UniProt A8K2U0); assay: as above; assay type: biochemical; conditions: covalent ester at thiol ester Gln-973; A2ML1 activated by chymotrypsin; 200 mM glycerol, HBS pH 7.4, 37 °C
# T2 construct: full-length recombinant, secreted by HEK293 Freestyle cells, no tag mentioned, purified by Zn IMAC, anion exchange and size exclusion; monomer; bait region cleaved by chymotrypsin in the assay
# T2 sequence (A8K2U0 18-1454): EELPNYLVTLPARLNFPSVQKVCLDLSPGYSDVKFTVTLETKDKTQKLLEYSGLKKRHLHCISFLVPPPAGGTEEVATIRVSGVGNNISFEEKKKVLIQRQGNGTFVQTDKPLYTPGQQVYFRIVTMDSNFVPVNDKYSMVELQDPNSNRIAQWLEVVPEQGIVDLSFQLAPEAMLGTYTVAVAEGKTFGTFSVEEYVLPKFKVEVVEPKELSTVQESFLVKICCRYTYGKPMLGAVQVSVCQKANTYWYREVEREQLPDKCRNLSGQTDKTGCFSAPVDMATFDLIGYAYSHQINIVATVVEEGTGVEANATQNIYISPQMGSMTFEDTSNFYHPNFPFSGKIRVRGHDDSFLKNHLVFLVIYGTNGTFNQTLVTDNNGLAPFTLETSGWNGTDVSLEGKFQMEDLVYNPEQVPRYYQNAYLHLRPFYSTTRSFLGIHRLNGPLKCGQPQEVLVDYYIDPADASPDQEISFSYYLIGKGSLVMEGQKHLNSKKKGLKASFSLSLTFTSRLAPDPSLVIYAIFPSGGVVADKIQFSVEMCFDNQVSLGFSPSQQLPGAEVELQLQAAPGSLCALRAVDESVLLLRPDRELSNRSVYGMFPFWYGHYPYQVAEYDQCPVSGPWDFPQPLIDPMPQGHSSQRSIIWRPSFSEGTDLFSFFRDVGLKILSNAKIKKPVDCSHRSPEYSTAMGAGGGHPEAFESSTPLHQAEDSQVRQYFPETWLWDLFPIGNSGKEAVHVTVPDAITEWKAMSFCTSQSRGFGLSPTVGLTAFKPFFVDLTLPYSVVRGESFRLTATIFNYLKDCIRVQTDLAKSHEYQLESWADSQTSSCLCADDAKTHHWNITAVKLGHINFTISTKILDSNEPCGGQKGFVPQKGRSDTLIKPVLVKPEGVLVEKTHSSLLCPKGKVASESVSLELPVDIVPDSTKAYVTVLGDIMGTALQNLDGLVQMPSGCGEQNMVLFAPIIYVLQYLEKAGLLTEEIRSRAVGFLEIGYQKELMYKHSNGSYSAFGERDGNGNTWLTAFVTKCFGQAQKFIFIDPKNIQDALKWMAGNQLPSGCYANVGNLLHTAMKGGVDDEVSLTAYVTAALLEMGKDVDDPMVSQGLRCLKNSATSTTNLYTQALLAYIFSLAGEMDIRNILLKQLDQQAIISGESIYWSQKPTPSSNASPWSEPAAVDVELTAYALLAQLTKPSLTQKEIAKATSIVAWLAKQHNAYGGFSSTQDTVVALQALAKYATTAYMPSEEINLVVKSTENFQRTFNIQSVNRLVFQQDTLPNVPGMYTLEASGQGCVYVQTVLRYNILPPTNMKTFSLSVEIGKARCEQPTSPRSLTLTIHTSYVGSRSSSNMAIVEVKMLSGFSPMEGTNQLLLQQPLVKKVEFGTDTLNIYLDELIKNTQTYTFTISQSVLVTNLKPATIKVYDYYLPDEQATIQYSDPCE
structure (smiles),measurement,setting,value
OCC(O)CO [glycerol],LC-MS/MS PRM of the pepsin-digested thiol ester peptide conjugate,A2M (α2-macroglobulin),reaction products between the thiol ester and glycerol was detected for A2M N1088H
same,LC-MS/MS PRM of the pepsin-digested thiol ester peptide conjugate,[1],the reaction product with the hydroxyl substrate glycerol was only detected for WT A2ML1
